From paper PMC12666569, “The Pseudomonas aeruginosa membrane histidine kinase BqsS/CarS directly senses environmental ferrous iron (Fe^2+)” (The Journal of Biological Chemistry, 2025)

B1: Pseudomonas aeruginosa membrane histidine kinase BqsS/CarS, intact (enzyme)
chain: MRSIQRRLSVGLFAVLLVVGLVLAQTGLWLFDQGLRRYFAGNLREEAENLLVAMVRGPNGMQLDEQRLNPAFQRPYSGRYFVIELEKDTWRSRSLWDSELEVPHKKGLVQGLVDGPEEQRLLVFRGHYKRMGQKLRIVVAQDYTPILESFARVQWMGLGAGALALLLVLLLQRLTVRRSLRPLEEVRLQIAQLQQGQRSQLDNQAPEELEPLVEQINHLLAHTEETLKRSRNALGNLGHALKTPLAVLVSLAEREEMARQPELQQVLREQLEQIQQRLGRELGKARLVGEALPGAHFDCAEELPSLCDTLRLIHGPHLQVSWSAPPGLRLPWDREDLLEMLGNLLDNACKWADSEVRLTVAQGEGMVRLKVDDDGPGILPDQRQAVLERGTRLDEQVSGHGLGLGIARDIAEACGGRLSLEDSPLGGLRVSVELPLQKSGRAARA
notes: also called PaBqsS; intact PaBqsS; source: E. coli BL21 (DE3), membranes solubilized in detergent (Fos-Chol-14), purified (IMAC, TEV cleavage, second IMAC, SEC)

Legend:
intact PaBqsS = target: T1, intact PaBqsS (Pseudomonas aeruginosa, UniProt Q9I0I2); settings: 5.0 mM Mg2+, 37 °C, SEC buffer pH 7.5, Fos-Chol-14; no added Fe2+
T1 construct: gene carS

[1] = target: the molecule itself; experiment: SEC; cleaved, purified PaBqsS in detergent (Fos-Chol-14, also glyco-diosgenin (GDN)); HiLoad 16/600 Superose 6 pg; 50 mM Tris pH 7.5, 100 mM NaCl, 1 mM TCEP, 5% glycerol, 0.02% Fos-Chol-14

Row | Molecule | specific activity (intact PaBqsS) | stoichiometry N [1]
1 | Nc1ncnc2c1ncn2[C@@H]1O[C@H](COP(=O)(O)OP(=O)(O)OP(=O)(O)O)[C@@H](O)[C@H]1O [ATP] | We then tested the ATPase activity of intact PaBqsS purified in Fos-Chol-14 | 
2 | B1 |  | 2
